Measured values as given in paper PMC4572361, “Connecting proteins with drug-like compounds: Open source drug discovery workflows with BindingDB and KNIME” (Database: The Journal of Biological Databases and Curation, 2015).
Read-outs that look alike come from different tables or passages of the source.

Molecular target: T1, phospholipase A2
T1 construct: gene PLA2G1B; not described in the main text; reagent of the PubChem AID 588400 phospholipase counterscreen (possibly the PLA2 reporter enzyme of an ATG4B assay)
Test: phospholipase inhibition assay (as PubChem AID […])
Format: biochemical, Homo sapiens

SMILES | IC50 (read-out: no significant inhibition at concentrations up to 300 μM) [µM] | IC50 (read-out: IC50) [µM]
O=C(O)c1ccccc1Nc1cc(Cl)ccc1C(=O)O [lobenzarit] | > 300 | –
Cc1c(Cl)cccc1Nc1ccccc1C(=O)O [tolfenamic acid] | – | 20
